Source: patent publication US20220313650A1, “METHODS FOR TREATING NEURODEVELOPMENTAL DISORDERS” (The Broad Institute, Inc., priority 2019, published 2022)
Entries after “also recorded” stand apart in the source; their conditions may differ.

Experiments:
[1] = tested on: low-threshold T-type Ca2+ channels; assay: T type current recording in TRN neurons; assay type: cell-based, mice; settings: in the presence of LY379268
Procedure: For conducting slice electrophysiology analysis, whole-cell patch-clamp recordings were performed using horizontal slices for the rebound bursting assays and angled-coronal thalamocortical slices for the synaptic optogenetics experiments (Agmon et al., 1991). 21-35 day old male C57BL6 mice and Ptchd1 Y/− (knockout) mice were used. Animals were transcardially perfused under isoflurane anesthesia with an ice-cold cutting solution (194 mM Sucrose, 30 mM NaCl, 4.5 mM KCl, 1.2 mM NaH2PO4, 10 mM Glucose, 2 mM MgCl2, 0.2 mM CaCl2, and 26 mM NaHCO3). Mice were then decapitated and the brains were carefully dissected out. Both cerebellum and olfactory bulb were removed from the brain and were placed and glued onto the stage of a Leica Vibratome with the ventral surface down and the pial surface towards the blade. […]
The channel conductance of SK channels and low-threshold T-type Ca2+ channels at different holding membrane potentials ranging from −80 mV to −50 mV in the presence or absence of SK channel blockers was evaluated in order to further determine how the activation of mGluR2/3 in TRN neurons enhanced the rebound bursting.

Ptchd1 KO mice = assay: Auditory GO/NO GO noise filtering test, Ptchd1 KO mice; assay type: in vivo; settings: LY379268 5 mg/kg i.p.
Procedure: Behavioral Training and Testing was conducted. In brief, behavioral training and testing took place in grid-floor mounted, custom-built enclosures made of acrylic plastic (dimensions in cm: length: 15.2; width: 12.7; height: 24). All enclosures contained custom-designed operant ports, each of which was equipped with an IR LED/IR phototransistor pair (Digikey, Thief River Falls, Minn.) for nose-poke detection. Trial initiation was achieved through an initiation port mounted on the grid floor 6 cm away from the ‘response ports’ located at the front of the chamber. A pair of electrostatic speakers (Tucker Davis Technologies) producing the auditory stimuli were placed outside of the training apparatus and sound stimuli were conveyed via cylindrical tubes to apertures located at either side of the initiation port, allowing delivery of stereotypical stimuli across trials. All stimuli across tasks were generated by a TDT Rx8 sound system (Tucker-Davis Technologies, Alachua, Fla.). Sound stimuli were recorded and assessed for intensity using a prepolarized icp array microphone (PCB Piezotronics, Depew, N.Y.) after which frequency production was equalized using a software-based calibration via SigCalRP (Tucker-Davis Technologies, Alachua Fla.). […]
The sequence of “NO GO” stimuli followed a pre-determined pseudorandomized sequence which was shifted across testing sessions. […]

N[C@@]1(C(=O)O)COC2C(C(=O)O)C21 (stereo in doubt) [LY379268, (1R,4R,5S,6R)-4-Amino-2-oxabicyclo[3.1.0] hexane-4,6-dicarboxylic acid]
current mediated by T (max inward currents, T-type Ca2+ channel conductance) [1]: significantly increased
percentage of correct responses, auditory stimuli embedded with noise (Ptchd1 KO mice): fully rescued noise filtering deficits in the Ptchd1 KO to control level; also recorded: rescued to control levels
